Measurements from the NIST ThermoML archive (doi:10.1021/je800505y).
± gives the expanded uncertainty stated by the source.

Settings: Liquid, Ebulliometric method (Recirculating still)

SMILES	vapor or sublimation pressure (253.15 K)	vapor or sublimation pressure (263.15 K)	vapor or sublimation pressure (278.15 K)	vapor or sublimation pressure (292.92 K)
FCC(F)(F)F [1,1,1,2-tetrafluoroethane]	131 ± 10 kPa	203 ± 10 kPa	353 ± 10 kPa	571 ± 10 kPa
CCF [fluoroethane]	214 ± 10 kPa	311 ± 10 kPa	517 ± 10 kPa	802 ± 10 kPa
